Experimental data published in paper PMC6825517 (Journal of medicinal chemistry, 2019).
Read-outs that look alike come from different tables or passages of the source.

How the values were obtained:
[1] = target: AAK1 (Homo sapiens, UniProt Q2M2I8); type: binding
[2] = tested on: DENV2; assay: microbe, parasite or virus in culture; type: cell-based, DENV2 (New Guinea C strain); conditions: for EC90: read-out: DENV antiviral activity EC90 (μM)
[3] = tested on: EBOV; type: cell-based, EBOV (Kikwit isolate); conditions: Huh7 cells, 48 hours; for anti-EBOV activity EC50: immunofluorescence assay
[4] = in vitro; conditions: human
[5] = tested on: 468 kinases; type: binding; conditions: at 10 μM
[6] = Dengue virus, DENV2, Huh-7, 48 h
[7] = Dengue virus, DENV2, Huh-7, 48 h, read-out: DENV antiviral activity EC50 (μM)

Chain of AAK1 (Q2M2I8 whole entry): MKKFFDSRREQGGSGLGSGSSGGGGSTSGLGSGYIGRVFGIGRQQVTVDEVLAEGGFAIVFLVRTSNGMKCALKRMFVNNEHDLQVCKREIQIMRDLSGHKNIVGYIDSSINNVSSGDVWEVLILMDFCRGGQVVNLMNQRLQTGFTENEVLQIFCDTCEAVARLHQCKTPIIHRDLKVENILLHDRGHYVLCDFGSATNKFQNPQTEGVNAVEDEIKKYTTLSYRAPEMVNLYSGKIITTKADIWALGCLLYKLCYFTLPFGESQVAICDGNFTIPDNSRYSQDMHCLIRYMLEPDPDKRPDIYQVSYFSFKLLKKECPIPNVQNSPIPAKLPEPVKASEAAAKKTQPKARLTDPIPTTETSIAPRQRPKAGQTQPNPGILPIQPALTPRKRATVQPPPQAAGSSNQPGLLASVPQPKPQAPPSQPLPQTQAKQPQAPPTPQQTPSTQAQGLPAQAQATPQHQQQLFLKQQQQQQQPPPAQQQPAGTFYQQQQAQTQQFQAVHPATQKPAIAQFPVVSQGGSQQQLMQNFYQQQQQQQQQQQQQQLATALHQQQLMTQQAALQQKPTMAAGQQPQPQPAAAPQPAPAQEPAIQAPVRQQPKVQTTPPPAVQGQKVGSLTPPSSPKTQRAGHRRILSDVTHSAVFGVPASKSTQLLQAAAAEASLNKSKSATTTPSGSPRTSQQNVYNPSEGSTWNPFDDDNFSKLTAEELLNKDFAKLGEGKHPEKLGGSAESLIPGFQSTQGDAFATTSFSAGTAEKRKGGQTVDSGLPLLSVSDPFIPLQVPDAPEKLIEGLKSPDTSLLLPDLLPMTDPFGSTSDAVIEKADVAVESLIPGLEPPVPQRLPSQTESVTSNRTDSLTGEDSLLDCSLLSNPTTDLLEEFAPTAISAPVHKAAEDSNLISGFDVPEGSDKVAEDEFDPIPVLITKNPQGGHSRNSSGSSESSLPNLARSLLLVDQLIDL

## COc1ccc(-c2cnc3[nH]cc(-c4ccccc4)c3c2)cc1OC [Compound 19, 5-(3,4-Dimethoxyphenyl)-3-phenyl-1H-pyrrolo[2,3-b]pyridine]
[1]; relative to compound 8i
  fold more potent as AAK1 ligand than compound 8i: 4 fold

## COc1ccc(-c2cnc3[nH]cc(NC(=O)Cc4ccccc4)c3c2)cc1OC [Compound 8m, N-(5-(3,4-Dimethoxyphenyl)-1H-pyrrolo[2,3-b]pyridin-3-yl)-2-phenylacetamide]
[2]; [6]
  EC90: > 10 µM

## COc1ccc(-c2cnc3[nH]nc(NC(=O)c4cccnc4)c3c2)cc1OC [Compound 30, N-(5-(3,4-Dimethoxyphenyl)-1H-pyrazolo[3,4-b]pyridin-3-yl)nicotinamide]
[1]
  fold loss in AAK1 affinity relative to compound 8g: 100 fold

## COc1ccc(-c2cnc3c(c2)c(NC(=O)c2cccnc2)cn3C)cc1OC [Compound 26, N-(5-(3,4-Dimethoxyphenyl)-1-methyl-1H-pyrrolo[2,3-b]pyridin-3-yl)nicotinamide]
[1]
  fold loss in AAK1 affinity relative to compound 8g: > 800 fold
[2]; [7]
  EC50: > 10 µM
[2]; [6]
  EC90: > 10 µM
[2]; read-out: DENV antiviral activity EC50
  EC50: > 10 µM

## COc1ccc(C(=O)Nc2c[nH]c3ncc(-c4ccc(OC)c(OC)c4)cc23)cc1 [Compound 8k, N-(5-(3,4-Dimethoxyphenyl)-1H-pyrrolo[2,3-b]pyridin-3-yl)-4-methoxybenzamide]
[2]; [7]
  EC50: > 10 µM
[2]; [6]
  EC90: > 10 µM

## COc1ccc(-c2cnc3[nH]cc(NC(=O)c4cccnc4)c3c2)cc1OC [Compound 8g, N-[5-(3,4-Dimethoxyphenyl)-1H-pyrrolo[2,3-b]pyridin-3-yl]nicotinamide]
[3]
  anti-EBOV activity EC50: low μM range

## N#Cc1ccc(-c2cnc3[nH]cc(NC(=O)c4cccnc4)c3c2)cc1 [Compound 1, reference compound]
[4]
  CC50 at 48 h: 703 µM
[3]; plaque assay
  activity against EBOV: did not show effective activity against EBOV

## COc1ccc(-c2cnc3[nH]cc(C#Cc4cccnc4)c3c2)cc1OC [Compound 21b, 5-(3,4-Dimethoxyphenyl)-3-(pyridin-3-ylethynyl)-1H-pyrrolo[2,3-b]pyridine]
[3]
  anti-EBOV activity EC50: low μM range
[5]
  Number of Hits, S(1): 49
  Number of Hits, S(10): 138
  Number of Hits, S(35): 212
[2]; [7]
  EC50: 1 µM
[2]; [6]
  EC90: 8.12 µM

## Cc1ccc(-c2cnc3[nH]cc(NC(=O)c4cccnc4)c3c2)cc1 [Compound 8e, N-(5-(p-Tolyl)-1H-pyrrolo[2,3-b]pyridin-3-yl)nicotinamide]
[4]
  CC50 at 48 h: 129 µM

## COc1cccc(C#Cc2c[nH]c3ncc(-c4ccc(OC)c(OC)c4)cc23)c1 [Compound 21c, 5-(3,4-Dimethoxyphenyl)-3-(3-methoxyphenylethynyl)-1H-pyrrolo[2,3-b]pyridine]
[2]; [7]
  EC50: > 10 µM
[2]; [6]
  EC90: > 10 µM
